# Results taken from ChEMBL document CHEMBL3621062, “Discovery, SAR, and X-ray Binding Mode Study of BCATm Inhibitors from a Novel DNA-Encoded Library” (ACS Med Chem Lett, 2015).
# Biological target: T1, Branched-chain-amino-acid aminotransferase, mitochondrial (Homo sapiens, UniProt O15382)
# T1 sequence (O15382 whole entry): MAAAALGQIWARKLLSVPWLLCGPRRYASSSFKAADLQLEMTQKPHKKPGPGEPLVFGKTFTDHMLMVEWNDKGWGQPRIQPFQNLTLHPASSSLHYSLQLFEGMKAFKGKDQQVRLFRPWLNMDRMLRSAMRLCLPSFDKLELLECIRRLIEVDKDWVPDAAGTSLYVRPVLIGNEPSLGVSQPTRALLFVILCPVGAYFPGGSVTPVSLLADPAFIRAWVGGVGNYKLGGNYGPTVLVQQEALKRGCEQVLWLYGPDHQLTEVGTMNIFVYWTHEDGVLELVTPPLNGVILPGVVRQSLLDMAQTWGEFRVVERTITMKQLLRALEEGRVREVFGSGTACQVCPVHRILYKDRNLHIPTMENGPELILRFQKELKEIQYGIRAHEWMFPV
# Assay: Inhibition of human BCATm after 10 mins by fluorescent assay
row,SMILES,IC50 [µM]
1,CNC(=O)c1ccc(-c2cccc(C(=O)O)c2)cc1OC1CCN(C(=O)c2cc(Br)ccc2NC(=O)OC(C)(C)C)C1 (stereo not given),> 100
2,CNC(=O)c1ccc(-c2cccc(C(=O)O)c2)cc1OC1CCN(C(=O)c2cc(Br)ccc2N)C1 (stereo not given),> 100
3,CNC(=O)c1ccc(-c2cccc(C(=O)O)c2)cc1OC1CCN(C(=O)c2ccc(Br)s2)C1 (stereo not given),74.1
4,CNC(=O)c1ccc(-c2ccccc2NS(C)(=O)=O)cc1O[C@@H]1CCN(C(=O)c2ccc(Br)s2)C1,2
5,CNC(=O)c1ccc(-c2ccccc2NS(C)(=O)=O)cc1O[C@@H]1CCN(C(=O)c2ccc(Cl)s2)C1,2.8
6,CNC(=O)c1ccc(-c2ccccc2NS(C)(=O)=O)cc1O[C@@H]1CCN(C(=O)c2ccc(C#N)s2)C1,15.1
7,CNC(=O)c1ccc(-c2ccccc2C)cc1O[C@@H]1CCN(C(=O)c2ccc(Br)s2)C1,64.6
8,CNC(=O)c1ccc(-c2ccccc2)cc1O[C@@H]1CCN(C(=O)c2ccc(Br)s2)C1,> 100
9,CNC(=O)c1ccccc1OC1CCN(C(=O)c2ccc(Br)s2)C1 (stereo not given),> 100
10,CNC(=O)c1ccc(-c2ccccc2NS(C)(=O)=O)cc1OC1CCN(C(=O)c2ccc(Br)s2)C1 (racemic),3.9
